Read-outs that look alike come from different tables or passages of the source.
Target: ATR kinase (full-length ATR) (Homo sapiens (Human), UniProt Q13535)
Assay: ATR inhibition assay (radioactive-phosphate incorporation)
Assay type: biochemical
Procedure: Compounds were screened for their ability to inhibit ATR kinase using a radioactive-phosphate incorporation assay. Assays were carried out in a mixture of 50 mM Tris/HCl (pH 7.5), 10 mM MgCl2 and 1 mM DTT. Final substrate concentrations were 10 μM [γ-33P]ATP (3mCi 33P ATP/mmol ATP, Perkin Elmer) and 800 μM target peptide ([…]) (SEQ ID NO:1).
Assays were carried out at 25° C. in the presence of 5 nM full-length ATR. An assay stock buffer solution was prepared containing all of the reagents listed above, with the exception of ATP and the test compound of interest. 13.5 μL of the stock solution was placed in a 96 well plate followed by addition of 2 μL of DMSO stock containing serial dilutions of the test compound (typically starting from a final concentration of 15 μM with 3-fold serial dilutions) in duplicate (final DMSO concentration 7%). The plate was pre-incubated for 10 minutes at 25° C. and the reaction initiated by addition of 15 μL [γ-33P]ATP (final concentration 10 μM).
The reaction was stopped after […] by the addition of 30 μL 0.1M phosphoric acid containing 2 mM ATP. A multiscreen phosphocellulose filter 96-well plate (Millipore, Cat no. MAPHN0B50) was pretreated with 100 μL 0.2M phosphoric acid prior to the addition of […] of the stopped assay mixture. The plate was washed with 5×200 μL 0.2M phosphoric acid. After drying, 100 μL Optiphase ‘SuperMix’ liquid scintillation cocktail (Perkin Elmer) was added to the well prior to scintillation counting (1450 Microbeta Liquid Scintillation Counter, Wallac).
After removing mean background values for all of the data points, Ki(app) data were calculated from non-linear regression analysis of the initial rate data using the Prism software package (GraphPad Prism version 3.0cx for Macintosh, GraphPad Software, San Diego Calif., USA).

[1] = Ki(app), 5 nM full-length ATR, 10 μM ATP, 25° C.

Chain of ATR kinase (full-length ATR) (Q13535 whole entry): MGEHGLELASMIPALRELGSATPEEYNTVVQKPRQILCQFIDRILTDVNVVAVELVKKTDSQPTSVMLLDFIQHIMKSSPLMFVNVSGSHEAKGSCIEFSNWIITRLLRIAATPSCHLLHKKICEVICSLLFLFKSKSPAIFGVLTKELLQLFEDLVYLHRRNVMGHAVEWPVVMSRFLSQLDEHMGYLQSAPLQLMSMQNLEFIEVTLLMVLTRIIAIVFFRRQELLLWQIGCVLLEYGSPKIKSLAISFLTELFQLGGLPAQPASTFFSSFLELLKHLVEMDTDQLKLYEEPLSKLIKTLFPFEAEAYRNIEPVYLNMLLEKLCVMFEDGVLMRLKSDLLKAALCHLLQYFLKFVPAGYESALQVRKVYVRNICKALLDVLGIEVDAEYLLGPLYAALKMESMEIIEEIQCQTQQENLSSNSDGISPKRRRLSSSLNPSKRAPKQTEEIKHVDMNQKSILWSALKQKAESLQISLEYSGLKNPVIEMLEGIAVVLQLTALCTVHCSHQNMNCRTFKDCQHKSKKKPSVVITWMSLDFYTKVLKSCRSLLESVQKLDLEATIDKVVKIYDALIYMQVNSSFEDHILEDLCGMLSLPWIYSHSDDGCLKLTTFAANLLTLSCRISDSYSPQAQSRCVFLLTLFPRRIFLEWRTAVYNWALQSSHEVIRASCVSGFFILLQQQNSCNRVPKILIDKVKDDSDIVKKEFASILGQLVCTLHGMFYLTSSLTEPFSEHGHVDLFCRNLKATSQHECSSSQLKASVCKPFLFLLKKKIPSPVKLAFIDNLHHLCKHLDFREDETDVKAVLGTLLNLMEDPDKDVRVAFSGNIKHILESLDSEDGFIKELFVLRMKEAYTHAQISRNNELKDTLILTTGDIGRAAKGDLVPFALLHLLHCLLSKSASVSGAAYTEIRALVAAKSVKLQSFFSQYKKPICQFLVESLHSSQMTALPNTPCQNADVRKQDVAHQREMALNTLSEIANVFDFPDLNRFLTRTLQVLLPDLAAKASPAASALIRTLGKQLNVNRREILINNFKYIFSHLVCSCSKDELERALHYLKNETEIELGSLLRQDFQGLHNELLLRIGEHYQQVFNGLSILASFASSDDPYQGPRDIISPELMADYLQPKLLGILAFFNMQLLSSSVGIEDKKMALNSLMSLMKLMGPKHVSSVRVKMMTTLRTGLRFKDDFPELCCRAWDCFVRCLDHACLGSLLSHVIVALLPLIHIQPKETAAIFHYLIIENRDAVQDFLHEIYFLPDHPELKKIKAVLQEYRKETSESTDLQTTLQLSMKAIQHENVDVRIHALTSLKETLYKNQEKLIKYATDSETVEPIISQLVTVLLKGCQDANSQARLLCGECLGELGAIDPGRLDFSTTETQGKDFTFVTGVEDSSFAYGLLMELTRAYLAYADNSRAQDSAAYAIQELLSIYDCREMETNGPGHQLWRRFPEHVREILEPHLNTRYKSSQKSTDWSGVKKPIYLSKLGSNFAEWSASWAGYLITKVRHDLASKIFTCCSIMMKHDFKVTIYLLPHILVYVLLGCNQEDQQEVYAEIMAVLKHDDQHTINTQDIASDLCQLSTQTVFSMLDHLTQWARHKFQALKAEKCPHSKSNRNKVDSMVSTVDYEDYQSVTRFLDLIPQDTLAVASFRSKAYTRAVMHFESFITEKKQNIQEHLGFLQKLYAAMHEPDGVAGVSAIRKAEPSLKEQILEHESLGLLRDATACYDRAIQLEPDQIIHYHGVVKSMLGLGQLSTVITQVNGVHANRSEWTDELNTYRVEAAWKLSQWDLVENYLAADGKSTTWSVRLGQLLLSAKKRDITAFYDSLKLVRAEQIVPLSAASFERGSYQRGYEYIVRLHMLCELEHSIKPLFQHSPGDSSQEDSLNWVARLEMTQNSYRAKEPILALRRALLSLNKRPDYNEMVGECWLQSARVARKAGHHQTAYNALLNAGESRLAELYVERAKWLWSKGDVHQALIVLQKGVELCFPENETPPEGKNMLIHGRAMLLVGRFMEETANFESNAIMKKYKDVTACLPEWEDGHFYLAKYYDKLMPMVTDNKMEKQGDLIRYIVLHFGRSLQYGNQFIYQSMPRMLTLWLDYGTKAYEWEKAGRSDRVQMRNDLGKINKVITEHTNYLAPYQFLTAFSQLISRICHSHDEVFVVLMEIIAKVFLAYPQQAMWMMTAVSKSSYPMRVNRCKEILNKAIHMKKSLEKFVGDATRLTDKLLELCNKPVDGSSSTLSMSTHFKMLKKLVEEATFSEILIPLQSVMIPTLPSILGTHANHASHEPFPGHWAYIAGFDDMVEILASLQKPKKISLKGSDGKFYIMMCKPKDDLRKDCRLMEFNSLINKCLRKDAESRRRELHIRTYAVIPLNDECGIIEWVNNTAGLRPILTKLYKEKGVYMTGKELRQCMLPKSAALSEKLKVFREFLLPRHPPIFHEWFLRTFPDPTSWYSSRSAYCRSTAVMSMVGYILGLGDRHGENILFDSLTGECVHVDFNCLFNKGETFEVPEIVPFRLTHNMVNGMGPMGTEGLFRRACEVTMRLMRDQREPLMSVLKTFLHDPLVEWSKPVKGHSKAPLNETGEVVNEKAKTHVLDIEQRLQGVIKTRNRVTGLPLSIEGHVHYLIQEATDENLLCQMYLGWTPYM

Compound: N#CC1(c2cnc3c(C(=O)Nc4cncc(F)c4N4CCN(C5COC5)CC4)c(N)nn3c2)CC1 [I-N-180, 2-amino-6-(1-cyanocyclopropyl)-N-(5-fluoro-4-(4-(oxetan-3-yl)piperazin-1-yl)pyridin-3-yl)pyrazolo[1,5-a]pyrimidine-3-carboxamide]
- Ki [1]: 10 to 1000 nM

Compound: CN1CCC(Oc2c(F)cncc2NC(=O)c2c(N)nn3cc(F)cnc23)CC1 [I-O-89, 2-amino-6-fluoro-N-(5-fluoro-4-((1-methylpiperidin-4-yl)oxy)pyridin-3-yl)pyrazolo[1,5-a]pyrimidine-3-carboxamide]
- Ki [1]: 10 to 1000 nM

Compound: Cc1cccnc1-c1ccncc1NC(=O)c1c(N)nn2cc(F)cnc12 [I-C-36, 2-amino-6-fluoro-N-(3-methyl-[2,4′-bipyridin]-3′-yl)pyrazolo[1,5-a]pyrimidine-3-carboxamide]
- Ki [1]: 10 to 1000 nM

Compound: CN1CC[C@H](Oc2ccncc2NC(=O)c2c(N)nn3cc(Cl)cnc23)C1 [I-O-69, (S)-2-amino-6-chloro-N-(4-((1-methylpyrrolidin-3-yl)oxy)pyridin-3-yl)pyrazolo[1,5-a]pyrimidine-3-carboxamide]
- Ki [1]: 10 to 1000 nM

Compound: CC(C)(C#N)c1cnc2c(C(=O)Nc3cnccc3N3CCN(C4COC4)CC3)c(N)nn2c1 [I-N-142, 2-amino-6-(2-cyanopropan-2-yl)-N-(4-(4-(oxetan-3-yl)piperazin-1-yl)pyridin-3-yl)pyrazolo[1,5-a]pyrimidine-3-carboxamide]
- Ki: 1000 to 5000 nM

Compound: N#CCc1cnc2c(C(=O)Nc3cnccc3O[C@@H]3CCOC3)c(N)nn2c1 [I-O-31, (R)-2-amino-6-(cyanomethyl)-N-(4-((tetrahydrofuran-3-yl)oxy)pyridin-3-yl)pyrazolo[1,5-a]pyrimidine-3-carboxamide]
- Ki [1]: < 10 nM

Compound: Nc1nn2cc(F)cnc2c1C(=O)Nc1cnccc1N1CCN2C(=O)CCCC2C1 (stereo not drawn) [I-N-244, 2-amino-6-fluoro-N-(4-(6-oxohexahydro-1H-pyrido[1,2-a]pyrazin-2(6H)-yl)pyridin-3-yl)pyrazolo[1,5-a]pyrimidine-3-carboxamide]
- Ki [1]: 10 to 1000 nM

Compound: Nc1nn2cc(F)cnc2c1C(=O)Nc1cnccc1N1CCC(C(=O)N2CC(F)C2)CC1 [I-G-82, 2-amino-6-fluoro-N-(4-(4-(3-fluoroazetidine-1-carbonyl)piperidin-1-yl)pyridin-3-yl)pyrazolo[1,5-a]pyrimidine-3-carboxamide]
- Ki [1]: 10 to 1000 nM

Compound: Nc1nn2cc(F)cnc2c1C(=O)Nc1cnccc1N1CCS(=O)(=O)CC1 [I-N-210, 2-amino-N-(4-(1,1-dioxidothiomorpholino)pyridin-3-yl)-6-fluoropyrazolo[1,5-a]pyrimidine-3-carboxamide]
- Ki [1]: 10 to 1000 nM

Compound: CN1CC[C@@H](OC2CCN(c3ccncc3NC(=O)c3c(N)nn4cc(F)cnc34)CC2)C1 [I-N-131]
- Ki: 10 to 1000 nM

Compound: CCN1CCCCC1C(=O)N1CCN(c2c(F)cncc2NC(=O)c2c(N)nn3cc(F)cnc23)CC1 (stereo not drawn) [I-N-204, 2-amino-N-(4-(4-(1-ethylpiperidine-2-carbonyl)piperazin-1-yl)-5-fluoropyridin-3-yl)-6-fluoropyrazolo[1,5-a]pyrimidine-3-carboxamide]
- Ki [1]: 10 to 1000 nM

Compound: Nc1nn2cc(F)cnc2c1C(=O)Nc1cncc(F)c1N1CCC(C(=O)N2CCOCC2)CC1 [I-G-36, 2-amino-6-fluoro-N-(5-fluoro-4-(4-(morpholine-4-carbonyl)piperidin-1-yl)pyridin-3-yl)pyrazolo[1,5-a]pyrimidine-3-carboxamide]
- Ki [1]: 10 to 1000 nM

Compound: CC(C)(C#N)c1cnc2c(C(=O)Nc3cncc(F)c3N3CCN(C4COC4)CC3)c(N)nn2c1 [I-N-144]
- Ki: 1000 to 5000 nM

Compound: Nc1nn2cc(F)cnc2c1C(=O)Nc1cncc(F)c1N1CCC(S(=O)(=O)N2CCC2)CC1 [I-N-169, 2-amino-N-(4-(4-(azetidin-1-ylsulfonyl)piperidin-1-yl)-5-fluoropyridin-3-yl)-6-fluoropyrazolo[1,5-a]pyrimidine-3-carboxamide]
- Ki [1]: 10 to 1000 nM

Compound: CN1C(=O)CCC12CCN(c1ccncc1NC(=O)c1c(N)nn3cc(F)cnc13)CC2 [I-N-235, 2-amino-6-fluoro-N-(4-(1-methyl-2-oxo-1,8-diazaspiro[4.5]decan-8-yl)pyridin-3-yl)pyrazolo[1,5-a]pyrimidine-3-carboxamide]
- Ki [1]: 10 to 1000 nM

Compound: CC1(C)CN(c2ccncc2NC(=O)c2c(N)nn3cc(F)cnc23)CCS1(=O)=O [I-N-252, 2-amino-N-(4-(2,2-dimethyl-1,1-dioxidothiomorpholino)pyridin-3-yl)-6-fluoropyrazolo[1,5-a]pyrimidine-3-carboxamide]
- Ki [1]: 10 to 1000 nM

Compound: COc1cncc(NC(=O)c2c(N)nn3cc(F)cnc23)c1-c1cncn1C [I-C-81, 2-amino-6-fluoro-N-(5-methoxy-4-(1-methyl-1H-imidazol-5-yl)pyridin-3-yl)pyrazolo[1,5-a]pyrimidine-3-carboxamide]
- Ki [1]: < 10 nM

Compound: Cc1ncn(-c2ccncc2NC(=O)c2c(N)nn3cc(F)cnc23)n1 [I-N-161, 2-amino-6-fluoro-N-(4-(3-methyl-1H-1,2,4-triazol-1-yl)pyridin-3-yl)pyrazolo[1,5-a]pyrimidine-3-carboxamide]
- Ki [1]: 10 to 1000 nM

Compound: Cc1ccncc1NC(=O)c1c(N)nn2cc(CC#N)cnc12 [I-C-3, 2-amino-6-(cyanomethyl)-N-(4-methylpyridin-3-yl)pyrazolo[1,5-a]pyrimidine-3-carboxamide]
- Ki [1]: 10 to 1000 nM

Compound: N#CCc1cnc2c(C(=O)Nc3cnccc3N3CCC(N)CC3)c(N)nn2c1 [I-N-2, 2-amino-N-(4-(4-aminopiperidin-1-yl)pyridin-3-yl)-6-(cyanomethyl)pyrazolo[1,5-a]pyrimidine-3-carboxamide]
- Ki [1]: 10 to 1000 nM

Compound: Nc1nn2cc(F)cnc2c1C(=O)Nc1cncc(F)c1N1CCN(S(=O)(=O)C2COC2)CC1 [I-N-201]
- Ki [1]: 10 to 1000 nM

Compound: Nc1nn2cc(F)cnc2c1C(=O)Nc1cncc(Cl)c1N1CCN(C2CCOC2)CC1 (stereo not drawn) [I-N-124, 2-amino-N-(5-chloro-4-(4-(tetrahydrofuran-3-yl)piperazin-1-yl)pyridin-3-yl)-6-fluoropyrazolo[1,5-a]pyrimidine-3-carboxamide]
- Ki [1]: 10 to 1000 nM

Compound: Nc1nn2cc(Cl)cnc2c1C(=O)Nc1cnccc1O[C@H]1CCOC1 [I-O-58, (S)-2-amino-6-chloro-N-(4-((tetrahydrofuran-3-yl)oxy)pyridin-3-yl)pyrazolo[1,5-a]pyrimidine-3-carboxamide]
- Ki [1]: 10 to 1000 nM

Compound: Nc1nn2cc(F)cnc2c1C(=O)Nc1cnccc1N1CCC(C(=O)N2CCCC2)CC1 [I-G-83, 2-amino-6-fluoro-N-(4-(4-(pyrrolidine-1-carbonyl)piperidin-1-yl)pyridin-3-yl)pyrazolo[1,5-a]pyrimidine-3-carboxamide]
- Ki [1]: 10 to 1000 nM

Compound: COCCn1cncc1-c1ccncc1NC(=O)c1c(N)nn2cc(F)cnc12 [I-C-83, 2-amino-6-fluoro-N-(4-(1-(2-methoxyethyl)-1H-imidazol-5-yl)pyridin-3-yl)pyrazolo[1,5-a]pyrimidine-3-carboxamide]
- Ki [1]: 10 to 1000 nM

Compound: COCCN1CCN(c2ccncc2NC(=O)c2c(N)nn3cc(F)cnc23)CC1 [I-N-22, 2-amino-6-fluoro-N-(4-(4-(2-methoxyethyl)piperazin-1-yl)pyridin-3-yl)pyrazolo[1,5-a]pyrimidine-3-carboxamide]
- Ki [1]: 10 to 1000 nM

Compound: CNCCc1cnn(-c2ccncc2NC(=O)c2c(N)nn3cc(F)cnc23)c1 [I-N-8, 2-amino-6-fluoro-N-(4-(4-(2-(methylamino)ethyl)-1H-pyrazol-1-yl)pyridin-3-yl)pyrazolo[1,5-a]pyrimidine-3-carboxamide]
- Ki: 1000 to 5000 nM

Compound: Nc1nn2cc(F)cnc2c1C(=O)Nc1cncc(F)c1N1CCN(C(=O)C2CCOC2)CC1 (stereo not drawn) [I-N-274, 2-amino-6-fluoro-N-(5-fluoro-4-(4-(tetrahydrofuran-3-carbonyl)piperazin-1-yl)pyridin-3-yl)pyrazolo[1,5-a]pyrimidine-3-carboxamide]
- Ki [1]: 10 to 1000 nM

Compound: Nc1nn2cc(Cl)cnc2c1C(=O)Nc1cnccc1N1CCN(C2CCC2)CC1 [I-N-48, 2-amino-6-chloro-N-(4-(4-cyclobutylpiperazin-1-yl)pyridin-3-yl)pyrazolo[1,5-a]pyrimidine-3-carboxamide]
- Ki [1]: 10 to 1000 nM

Compound: Cc1cncc(NC(=O)c2c(N)nn3cc(Cl)cnc23)c1N1CCN(C)CC1 [I-N-57, 2-amino-6-chloro-N-(5-methyl-4-(4-methylpiperazin-1-yl)pyridin-3-yl)pyrazolo[1,5-a]pyrimidine-3-carboxamide]
- Ki [1]: 10 to 1000 nM

Compound: CN1CCOC2(CCN(c3c(F)cncc3NC(=O)c3c(N)nn4cc(F)cnc34)CC2)C1 [I-N-272, 2-amino-6-fluoro-N-(5-fluoro-4-(4-methyl-1-oxa-4,9-diazaspiro[5.5]undecan-9-yl)pyridin-3-yl)pyrazolo[1,5-a]pyrimidine-3-carboxamide]
- Ki [1]: 10 to 1000 nM

Compound: N#CCc1cnc2c(C(=O)Nc3cnccc3OC3CCC3)c(N)nn2c1 [I-O-36, 2-amino-6-(cyanomethyl)-N-(4-cyclobutoxypyridin-3-yl)pyrazolo[1,5-a]pyrimidine-3-carboxamide]
- Ki [1]: < 10 nM

Compound: Nc1nn2cc(F)cnc2c1C(=O)Nc1cnccc1-c1ccc(S(=O)(=O)N2CCC2)cc1 [I-C-64, 2-amino-N-(4-(4-(azetidin-1-ylsulfonyl)phenyl)pyridin-3-yl)-6-fluoropyrazolo[1,5-a]pyrimidine-3-carboxamide]
- Ki [1]: 10 to 1000 nM
